The record followed here is patent US20260207554A1 (priority 2022, published 2026).

The series has as its system adult nondependent recreational opioid users. As to conditions: in vivo.

The structures appear in SMILES notation. Structures can show the parent of a compound that is named as a salt.

Regarding `COc1cccc(C2(O)CCCCC2CN(C)C)c1` (centres unmarked) [Tramadol HCl], under “human”, the “Skin and subcutaneous tissue disorders, subjects with TEAE n (%)” value is reported as “(25.6%)”. For the same molecule, for the setting “human, po”, the “Abdominal pain upper, subjects with TEAE n (%)” value is 0%; the “Dizziness, subjects with TEAE n (%)” value is reported as “(2.6%)”; the “Gastrointestinal disorders, subjects with TEAE n (%)” value was “(35.9%)”; the “Generalised tonic-clonic seizure, subjects with TEAE n (%)” value was “(5.1%)”. Also, under “human, po”, the “Headache, subjects with TEAE n (%)” value is “(7.7%)”; the “Hiccups, subjects with TEAE n (%)” value is given as “(2.6%)”; the “Number of subjects with at least one TEAE, n (%)” value was “(66.7%)”; the “Somnolence, subjects with TEAE n (%)” value is “(7.7%)”. Also, where the note is “human, po”, the “Tension headache, subjects with TEAE n (%)” value was determined as 0%; the “Toothache, subjects with TEAE n (%)” value amounted to 0%; the “Tremor, subjects with TEAE n (%)” value came to 0%; the “Uvulitis, subjects with TEAE n (%)” value is “(2.6%)”. In addition, where the note is “human, po”, the “Vertigo, subjects with TEAE n (%)” value is “(2.6%)”; the “feeling hot, incidence of subjects” value came out at 2.5%; the “hot flush, incidence of subjects” value is on record as 12.8%. The “subjects who experienced seizures” value (po) was “two subjects experienced seizures”.
On to `COc1ccc2c3c1O[C@H]1C(=O)CC[C@@]4(O)[C@@H](C2)N(C)CC[C@]314.Cl` [Oxycodone HCl], for which, where the note is “human”, the “Skin and subcutaneous tissue disorders, subjects with TEAE n (%)” value was “(29.5%)”. Also, under “human, po”, the “Abdominal pain upper, subjects with TEAE n (%)” value stood at 0%; the “Dizziness, subjects with TEAE n (%)” value is “(9.1%)”; the “Gastrointestinal disorders, subjects with TEAE n (%)” value is “(27.3%)”; the “Generalised tonic-clonic seizure, subjects with TEAE n (%)” value turned out to be 0%. Under “human, po”, the “Headache, subjects with TEAE n (%)” value was “(4.5%)”; the “Hiccups, subjects with TEAE n (%)” value is listed as “(6.8%)”; the “Nervous system disorders, subjects with TEAE n (%)” value was “(22.7%)”; the “Number of subjects with at least one TEAE, n (%)” value is “(56.8%)”. Under “human, po”, the “Somnolence, subjects with TEAE n (%)” value is given as “(9.1%)”; the “Tension headache, subjects with TEAE n (%)” value is reported as 0%; the “Toothache, subjects with TEAE n (%)” value was determined as 0%; the “Tremor, subjects with TEAE n (%)” value worked out at 0%. Also, for the setting “human, po”, the “Uvulitis, subjects with TEAE n (%)” value was 0%; the “Vertigo, subjects with TEAE n (%)” value was 0%; the “Vomiting, subjects with TEAE n (%)” value was “(15.9%)”; the “feeling hot, incidence of subjects” value worked out at 2.3%. For the same molecule, the “hot flush, incidence of subjects” value (human, po) came out at 11.4%.
